In patent US11096941B2, “Methods of treating circadian rhythm sleep disorders” (Eisai R&D Management Co., Ltd., priority 2016, dated 2021):
Marks after values point to notes of the source that are not given here.

Experiments:
[1] = tested on: male senescence accelerated mouse resistant-1 (SAMR1, R1) strain animals; assay: Sleep/wake EEG/EMG recording and wake circadian phase in SAMR1 mice after oral administration; type: in vivo
From the text: (§1) A compound of Formula (I) was finely crushed and suspended in vehicle, a mixture of 0.5% w/v methylcellulose 400 cP in distilled water. Experimental data were collected on male senescence accelerated mouse prone-8 (“SAMP8” or “P8”) strain animals and male senescence accelerated mouse resistant-1 (“SAMR1” or “R1”) strain animals at the age of 21 weeks. P8 mice are known to show accelerated symptoms of aging and also pathological and behavioral symptoms of Alzheimer's disease, while R1 mice are used to represent a normal aging process and are also used as a control strain for P8 mice. See, e.g., Miyamoto, et al., Exp. Geron., 1997, 32, 139-48; Morley et al., Curr. Pharm. Des., 2012, 18, 1123-30.
(§2) Electroencephalogram (“EEG”) and electromyogram (“EMG”) electrodes were implanted on each mouse at 17-18 weeks of age, and the mice were then allowed to recover for at least 18 days in individual recording cages, where they could freely move, under a 12-hour light/12-hour dark cycle. Amplified EEG and EMG signals were digitally recorded for 3 days, separated into individual 24-hour recordings, which were initiated at each lights-on event. During the first 30 minutes of the light cycle (ZT 0-0.5), each mouse received an oral administration of either vehicle or 3 mg/kg of the compound of Formula (I) in vehicle or 30 mg/kg of the compound of Formula (I) in vehicle, after which the sleep/wake behavior of mice was recorded until the next lights on event. Each mouse received every treatment in a cross-over fashion with one treatment per day in the following order: vehicle (10 mL/kg bodyweight), 3 mg/kg, and then 30 mg/kg. Some mice started with vehicle on day 1, some mice started with 3 mg/kg compound of Formula (I) on day 1, and some mice started with 30 mg/kg compound of Formula (I) on day 1.
(§3) EEG frequency and EMG activity signal data were analyzed using software from Kissei Comtec Co., Ltd. to characterize every 10 second epoch as either rapid eye movement (REM) sleep, non-REM sleep, or wakefulness. Then, accumulated wakefulness, non-REM sleep, and REM sleep times over the light cycle (11.5 hours) and the dark cycle (12 hours) were calculated. Additionally, latencies to sleep and REM sleep were calculated as the first appearance of 6 or more epochs of uninterrupted sleep or one or more epochs of REM sleep after the dosing event, respectively. The circadian rhythm parameter phase was determined as the inflection point of a cosine curve fit to the wakefulness distribution in 30 minute bins across the day for every individual mouse using JTK_CYCLE software. Hughes, et al., J. Biol. Rhythms, 2010, 25, 372-80.
(§4) The differences between P8 mice and R1 mice (control mice) were statistically analyzed by comparing sleep/wake behavior and circadian rhythm of the vehicle-treated animals of each strain, while the effect of administration of a compound of Formula (I) on sleep/wake behavior and circadian rhythm was statistically analyzed for each strain as the difference between sleep/wake behavior and circadian rhythm on the vehicle-administration day and sleep/wake behavior and circadian rhythm on a drug-administration day. Statistical analysis of wakefulness time, non-REM sleep time, REM sleep time and latency, and sleep latency was performed with a linear mixed model which specified animal as random effect, and day, strain, treatment and the interaction between strain and treatment as fixed effects with Kenward-Roger as denominator degrees of freedom using SAS software. For estimation of wakefulness phase and its covariance, a linear mixed model was used which assumed heterogeneous variance of strain and treatment combination with Kenward-Roger as denominator and degrees of freedom using SAS software.

[2] = tested on: male senescence accelerated mouse prone-8 (SAMP8, P8) strain animals; assay: Sleep/wake EEG/EMG recording and wake circadian phase in SAMP8 mice after oral administration; type: in vivo; details: for Wake circadian phase, Phase (ZT): least square mean ± standard error
From the text: as §1, §2, §3, §4

[3] = 3 and 30 mg/kg oral during ZT 0-0.5, vs vehicle
[4] = 3 and 30 mg/kg oral, vs vehicle (FIG. 2)
[5] = P8 mice, 3 mg/kg oral at ZT 0-0.5
[6] = P8 mice, 30 mg/kg oral at ZT 0-0.5
[7] = P8 mice, 3 and 30 mg/kg oral during ZT 0-0.5, vs vehicle
[8] = P8 mice, 3 and 30 mg/kg oral, vs vehicle (FIG. 2)

`Cc1ncc(OC[C@@]2(c3cccc(F)c3)C[C@H]2C(=O)Nc2ccc(F)cn2)c(C)n1` [compound of Formula (I), (1R,2S)-2-(((2,4-dimethylpyrimidin-5-yl)oxy)methyl)-2-(3-fluorophenyl)-N-(5-fluoropyridin-2-yl)cyclopropanecarboxamide] was tested, and the “Covariance of Phase” value ([1]; 3 mg/kg oral at ZT 0-0.5) was 5.18, the “Wake circadian phase, Phase (ZT)” value ([1]; 3 mg/kg oral at ZT 0-0.5, least square mean ± standard error) was 15.65 ± 0.87 ZT and the “vigilance states (wakefulness, non-REM sleep, REM sleep) during dark time” value ([1]; 3 mg/kg oral in previous light time, ZT 12-24) was “no effect on each of the vigilance states”. For the same compound, the “Covariance of Phase” value ([1]; 30 mg/kg oral at ZT 0-0.5) was 0.05, the “Wake circadian phase, Phase (ZT)” value ([1]; 30 mg/kg oral at ZT 0-0.5, least square mean ± standard error) was 17.02 ± 0.35^a ZT and the “wakefulness time during dark time” value ([1]; 30 mg/kg oral in previous light time, ZT 12-24 (FIG. 1A)) was “decrease of wakefulness”. The “non-REM sleep time during dark time” value ([1]; 30 mg/kg oral in previous light time, ZT 12-24 (FIG. 1B)) was “increase of non-REM sleep”, the “wakefulness time during light time” value ([1]; 3 and 30 mg/kg oral at beginning of light time, ZT 0.5-12, vs vehicle (FIG. 1A)) was “reduces, in a dose-dependent manner, wakefulness” and the “phase covariance and phase variability (in words)” value [1, 3] was “reduction in phase covariance and phase variability”. The “wake phase shift (in words)” value [1, 3] was “dose-dependent significant delay (right-shift) of the wake phase”, the “non-REM sleep time during light time” value ([1]; 3 and 30 mg/kg oral, ZT 0.5-12, vs vehicle (FIG. 1B)) was “increases non-REM sleep” and the “REM sleep time during light time” value ([1]; 3 and 30 mg/kg oral, ZT 0.5-12, vs vehicle (FIG. 1C)) was “dose-dependent increase in the amount of REM sleep”. For the same compound, the REM sleep latency [1, 4] was “dose-dependent reduction of sleep and REM sleep latencies”, the sleep latency [1, 4] was “dose-dependent reduction of sleep and REM sleep latencies” and the “Covariance of Phase” value [2, 5] was 1.32. For the same compound, the “Wake circadian phase, Phase (ZT)” value [2, 5] was 14.00 ± 0.56 ZT, the “Covariance of Phase” value [2, 6] was 2.11 and the “Wake circadian phase, Phase (ZT)” value [2, 6] was 15.41 ± 0.64^b ZT. The “wakefulness time during light time” value ([2]; P8 mice, 3 and 30 mg/kg oral at beginning of light time, ZT 0.5-12, vs vehicle (FIG. 1A)) was “reduces, in a dose-dependent manner, wakefulness”, the “phase covariance and phase variability (in words)” value [2, 7] was “reduction in phase covariance and phase variability” and the “wake phase shift (in words)” value [2, 7] was “dose-dependent and significant delay (right-shift) of the wake phase”. The “wakefulness time during dark time” value ([2]; P8 mice, 3 and 30 mg/kg oral in previous light time, ZT 12-24 (FIG. 1A)) was “dose-dependent increase in wakefulness”, the “non-REM sleep time during dark time” value ([2]; P8 mice, 3 and 30 mg/kg oral in previous light time, ZT 12-24 (FIG. 1B)) was “decreases in non-REM sleep and REM sleep” and the “REM sleep time during dark time” value ([2]; P8 mice, 3 and 30 mg/kg oral in previous light time, ZT 12-24 (FIG. 1C)) was “decreases in non-REM sleep and REM sleep”. For the same compound, the “non-REM sleep time during light time” value ([2]; P8 mice, 3 and 30 mg/kg oral, ZT 0.5-12, vs vehicle (FIG. 1B)) was “increases non-REM sleep”, the “REM sleep time during light time” value ([2]; P8 mice, 3 and 30 mg/kg oral, ZT 0.5-12, vs vehicle (FIG. 1C)) was “dose-dependent increase in the amount of REM sleep” and the REM sleep latency [2, 8] was “dose-dependent reduction of sleep and REM sleep latencies”. For the same compound, the sleep latency [2, 8] was “dose-dependent reduction of sleep and REM sleep latencies”, the “wake phase relative to vehicle-treated R1 mice” value ([2]; treated P8 mice, administration during ZT 0-0.5) was “correction to the level of vehicle-treated R1 mice” and the “amounts of wake and non-REM sleep in light time relative to vehicle-treated R1 mice” value ([2]; treated P8 mice, light time) was “normalized to the level of vehicle-treated R1 mice”.
